BindingDB's records for doi:10.1021/jm034088d (Abbott Laboratories, 2003)
pKi: −log10 of the molar value.

Molecular target: Tyrosine-protein phosphatase non-receptor type 11, SHP-2 (Homo sapiens) (UniProt Q06124)
Experiment: Inhibitory activity against SH-domain containing phosphotyrosine phosphatase-2 (Tyrosine phosphatase SHP2) was determined

Sequence of Tyrosine-protein phosphatase non-receptor type 11, SHP-2 (Homo sapiens) (Q06124 whole entry, looked up): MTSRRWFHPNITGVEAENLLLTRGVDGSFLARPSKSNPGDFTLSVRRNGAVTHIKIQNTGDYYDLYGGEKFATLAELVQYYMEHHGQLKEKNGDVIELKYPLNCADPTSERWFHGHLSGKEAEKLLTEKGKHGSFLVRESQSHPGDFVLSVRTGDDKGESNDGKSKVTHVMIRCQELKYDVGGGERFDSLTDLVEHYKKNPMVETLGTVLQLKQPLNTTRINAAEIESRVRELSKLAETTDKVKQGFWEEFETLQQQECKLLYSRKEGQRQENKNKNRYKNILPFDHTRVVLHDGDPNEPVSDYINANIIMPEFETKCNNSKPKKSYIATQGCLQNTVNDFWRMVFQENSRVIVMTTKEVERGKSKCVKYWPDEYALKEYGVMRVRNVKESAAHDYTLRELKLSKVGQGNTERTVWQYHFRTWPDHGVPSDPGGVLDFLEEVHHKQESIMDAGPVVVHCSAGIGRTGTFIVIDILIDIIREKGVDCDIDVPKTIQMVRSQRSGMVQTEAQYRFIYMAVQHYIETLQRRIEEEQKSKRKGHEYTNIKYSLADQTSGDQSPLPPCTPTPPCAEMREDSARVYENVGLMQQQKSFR

| Structure (SMILES) | pKi |
| --- | --- |
| CCc1cc(CC(NC(C)=O)C(=O)NCCCCOc2cc(Cl)cc(O)c2C(=O)OC)ccc1N(C(=O)C(=O)O)c1ccccc1C(=O)O (configuration not stated) [2-[4-(2-Acetylamino-3-{4-[(2-carboxy-phenyl)-oxalyl-amino]-3-ethyl-phenyl}-propionylamino)-butoxy]-4-chloro-6-hydroxy-benzoic acid methyl ester] | < 5.52 |
| C=CCOC(=O)N[C@@H](Cc1ccc(N(C(=O)C(=O)O)c2ccccc2C(=O)O)cc1)C(=O)NCCCCOc1cccc(O)c1C(=O)OC [(S)-2-(N-(4-(2-(allyloxycarbonylamino)-3-(4-(3-hydroxy-2-(methoxycarbonyl)phenoxy)butylamino)-3-oxopropyl)phenyl)-1-carboxyformamido)benzoic acid] | 4.02 |
